Laboratory results from US20240300980A1, “HETEROCYCLIC COMPOUNDS AS KRAS INHIBITOR, AND PREPARATION THEREFOR AND USE THEREOF IN TREATMENT” (SHANGHAI KECHOW PHARMA, INC., priority 2021, published 2024).

Tested on: AGS cells (KRAS^G12D)
Assay: Detection of cell proliferation in vitro by MTT/MTS method (cell activity experiment)
Format: cell-based
Conditions: Homo sapiens, AGS, 72 h, AGS cells; MTT/MTS; 3 days of drug treatment; read-out: AGS IC50
Experimental: The above cells were cultured in a complete medium containing 10% fetal bovine serum, 100 IU/mL penicillin and 100 jag/mL streptomycin, in the aseptic incubator with 95% relative humidity and 5% CO2 concentration.
2. Reagents: F12K, D-PBS, FBS, Penicillin Streptomycin, Tryple, MTT (5 mg/mL)
Appropriate amount of compound powder was weighed in a 1.5 mL centrifuge tube, then the corresponding volume of dimethyl sulfoxide (DMSO) was added to form a 20 mM reserve solution. The solution was packed separately and stored in a refrigerator at −20° C. away from light.
The cells were inoculated in a cell culture bottle, added an appropriate amount of complete medium, and cultured in a sterile incubator. When the degree of cell confluence reached more than 80%, subculture was carried out.
The adherent cells in logarithmic growth phase were digested by trypsin or the suspension cells were collected by centrifugation and counted. 90 μL cell suspension was inoculated into 96-well plate according to the cell inoculation density of 1000 cells per well, and 10 μL of 10-fold final concentration compound diluted by culture medium was added 24 hours later. Compared with the hole with the same volume of 5% DMSO as control, the final concentration of DMSO was 0.5%. After 3 days of drug treatment, the cell viability was detected by MTT. The specific methods are as follows: 10 μL MTT per well was added into the incubator for 4 hours, the supernatant was discarded and 150 μL DMSO was added to dissolve the crystal methylazan, and the absorbance of 490 nm was detected by enzyme labeling instrument, or 10 μL MITS per well was added to the incubator for 4 hours, and […] absorbance was detected directly by enzyme labeling instrument. GraphPad Prism 6 software makes dose-effect curve and calculates IC50.

| IC50 [nM] | Compound |
| --- | --- |
| 280 | CCc1c(F)ccc2cc(O)cc(-c3ncc4c(N5C[C@H]6CC[C@@H](C5)S6)nc(OC[C@@]56CCCN5C[C@H](F)C6)nc4c3F)c12 [Example 24, 4-(4-((1R,5S)-8-thia-3-azabicyclo[3.2.1]octan-3-yl)-8-fluoro-2-(((2R, 7aS)-2-fluorotetrahydro-1H-pyrrolizin-7a(5H)-yl)methoxy)pyrido[4,3-d]pyrimidin-7-yl)-5-ethyl-6-fluoronaphthalen-2-ol] |
| 290 | CCc1cccc2cc(O)cc(-c3ncc4c(N5C[C@H]6CC[C@@H](C5)S6)nc(OC[C@@]56CCCN5C[C@H](F)C6)nc4c3F)c12 [Example 25, 4-(4-((1R,5S)-8-thia-3-azabicyclo[3.2.1]octan-3-yl)-8-fluoro-2-(((2R, 7aS)-2-fluorotetrahydro-1H-pyrrolizin-7a(5H)-yl)methoxy)pyrido[4,3-d]pyrimidin-7-yl)-5-ethylnaphthalen-2-ol] |
| 300 | Oc1cc(-c2ncc3c(N4C[C@H]5CC[C@@H](C4)S5)nc(OC[C@@]45CCCN4C[C@H](F)C5)nc3c2F)c2c(F)cccc2c1 [Example 26, 4-(4-((1R,5S)-8-thia-3-azabicyclo[3.2.1]octan-3-yl)-8-fluoro-2-(((2R, 7aS)-2-fluorotetrahydro-1H-pyrrolizin-7a(5H)-yl)methoxy)pyrido[4,3-d]pyrimidin-7-yl)-5-fluoronaphthalen-2-ol] |
| 295 | Oc1cc(-c2ncc3c(N4C[C@H]5CC[C@@H](C4)S5)nc(OC[C@@]45CCCN4C[C@H](F)C5)nc3c2F)c2c(F)c(F)ccc2c1 [Example 27, 4-(4-((1R,5S)-8-thia-3-azabicyclo[3.2.1]octan-3-yl)-8-fluoro-2-(((2R,7aS)-2-fluorotetrahydro-1H-pyrrolizin-7a(5H)-yl)methoxy)pyrido[4,3-d]pyrimidin-7-yl)-5,6-difluoronaphthalen-2-ol] |
| > 1000 | [O-][S+]1C2CCC1CN(c1nc(OC[C@@]34CCCN3C[C@H](F)C4)nc3c(F)c(-c4cc(O)cc5ccc(F)c(F)c45)ncc13)C2 (stereo partly drawn) [Example 28, (1R,5S,8R)-3-(7-(7,8-difluoro-3-hydroxynaphthalen-1-yl)-8-fluoro-2-(((2R, 7aS)-2-fluorotetrahydro-1H-pyrrolizin-7a(5H)-yl)methoxy)pyrido[4,3-d]pyrimidin-4-yl)-8-thia-3-azabicyclo [3.2.1]octane 8-oxide] |
| > 2500 | O=S1(=O)[C@@H]2CC[C@H]1CN(c1nc(OC[C@@]34CCCN3C[C@H](F)C4)nc3c(F)c(-c4cc(O)cc5ccc(F)c(F)c45)ncc13)C2 [Example 29, (1R,5S)-3-(7-(7,8-difluoro-3-hydroxynaphthalen-1-yl)-8-fluoro-2-(((2R,7aS)-2-fluorotetrahydro-1H-pyrrolizin-7a(5H)-yl)methoxy)pyrido[4,3-d]pyrimidin-4-yl)-8-thia-3-azabicyclo [3.2.1]octane 8,8-dioxide] |
| > 2500 | C#Cc1c(F)ccc2cc(O)cc(-c3ncc4c(N5C[C@H]6CC[C@@H](C5)C6(F)F)nc(OC[C@@]56CCCN5C[C@H](F)C6)nc4c3F)c12 [Example 30, 4-(4-((1R,5S)-8,8-difluoro-3-azabicyclo[3.2.1]octan-3-yl)-8-fluoro-2-(((2R,7aS)-2-fluorotetrahydro-1H-pyrrolizin-7a(5H)-yl)methoxy)pyrido[4,3-d]pyrimidin-7-yl)-5-ethynyl-6-fluoronaphthalen-2-ol] |
| > 2500 | CCc1c(F)ccc2cc(O)cc(-c3ncc4c(N5C[C@H]6CC[C@@H](C5)C6(F)F)nc(OC[C@@]56CCCN5C[C@H](F)C6)nc4c3F)c12 [Example 31, 4-(4-((1R,5S)-8,8-difluoro-3-azabicyclo [3.2.1]octan-3-yl)-8-fluoro-2-(((2R,7aS)-2-fluorotetrahydro-1H-pyrrolizin-7a(5H)-yl)methoxy)pyrido[4,3-d]pyrimidin-7-yl)-5-ethyl-6-fluoronaphthalen-2-ol] |
| > 2500 | C#Cc1cccc2cc(O)cc(-c3ncc4c(N5C[C@H]6CC[C@@H](C5)C6(F)F)nc(OC[C@@]56CCCN5C[C@H](F)C6)nc4c3F)c12 [Example 32, 4-(4-((1R,5S)-8,8-difluoro-3-azabicyclo [3.2.1]octan-3-yl)-8-fluoro-2-(((2R,7aS)-2-fluorotetrahydro-1H-pyrrolizin-7a(5H)-yl)methoxy)pyrido[4,3-d]pyrimidin-7-yl)-5-ethynylnaphthalen-2-ol] |
| > 2500 | Oc1cc(-c2ncc3c(N4C[C@H]5CC[C@@H](C4)C5(F)F)nc(OC[C@@]45CCCN4C[C@H](F)C5)nc3c2F)c2c(F)c(F)ccc2c1 [Example 33, 4-(4-((1R,5S)-8,8-difluoro-3-azabicyclo [3.2.1]octan-3-yl)-8-fluoro-2-(((2R,7aS)-2-fluorotetrahydro-1H-pyrrolizin-7a(5H)-yl)methoxy)pyrido[4,3-d]pyrimidin-7-yl)-5,6-difluoronaphthalen-2-ol] |
| > 2500 | C#Cc1c(F)ccc2cc(O)cc(-c3ncc4c(N5CC6CCC(C5)C6F)nc(OC[C@@]56CCCN5C[C@H](F)C6)nc4c3F)c12 (stereo partly drawn) [Example 34, 5-ethynyl-6-fluoro-4-(8-fluoro-4-((1R,5S, 8R)-8-fluoro-3-azabicyclo [3.2.1]octan-3-yl)-2-(((2R,7aS)-2-fluorotetrahydro-1H-pyrrolizin-7a(5H)-yl)methoxy)pyrido[4,3-d]pyrimidin-7-yl) naphthalen-2-ol] |
| > 2500 | CCc1c(F)ccc2cc(O)cc(-c3ncc4c(N5CC6CCC(C5)C6F)nc(OC[C@@]56CCCN5C[C@H](F)C6)nc4c3F)c12 (stereo partly drawn) [Example 35, 5-ethyl-6-fluoro-4-(8-fluoro-4-((1R,5S,8R)-8-fluoro-3-azabicyclo [3.2.1]octan-3-yl)-2-(((2R,7aS)-- fluorotetrahydro-1H-pyrrolizin-7a(5H)-yl)methoxy)pyrido[4,3-d]pyrimidin-7-yl) naphthalen-2-ol] |
| > 2500 | C#Cc1cccc2cc(O)cc(-c3ncc4c(N5CC6CCC(C5)C6F)nc(OC[C@@]56CCCN5C[C@H](F)C6)nc4c3F)c12 (stereo partly drawn) [Example 36, 5-ethynyl-4-(8-fluoro-4-((1R,5S,8R)-8-fluoro-3-azabicyclo[3.2.1]octan-3-yl)-2-(((2R,7aS)-2-fluorotetrahydro-1H-pyrrolizin-7a(5H)-yl)methoxy)pyrido[4,3-d]pyrimidin-7-yl) naphthalen-2-ol] |
| > 2500 | Oc1cc(-c2ncc3c(N4CC5CCC(C4)C5F)nc(OC[C@@]45CCCN4C[C@H](F)C5)nc3c2F)c2c(F)c(F)ccc2c1 (stereo partly drawn) [Example 37, 5,6-difluoro-4-(8-fluoro-4-((1R,5S,8R)-8-fluoro-3-azabicyclo[3.2.1]octan-3-yl)-2-(((2R,7aS)-2-fluorotetrahydro-1H-pyrrolizin-7a(5H)-yl)methoxy)pyrido[4,3-d]pyrimidin-7-yl) naphthalen-2-ol] |

| Compound | IC50 [nM] |
| --- | --- |
| Nc1cc2ccc(F)c(F)c2c(-c2ncc3c(N4C[C@H]5CC[C@@H](C4)N5)nc(OC[C@@]45CCCN4C[C@H](F)C5)nc3c2F)n1 [Example 38, 1-(4-((1R,5S)-3,8-diazabicyclo[3.2.1]octan-3-yl)-8-fluoro-2-(((2R,7aS)-2-fluorotetrahydro-1H-pyrrolizin-7a(5H)-yl)methoxy)pyrido[4,3-d]pyrimidin-7-yl)-7,8-difluoroisoquinolin-3-amine] | > 2500 |
| Nc1cc2ccc(F)c(Cl)c2c(-c2ncc3c(N4C[C@H]5CC[C@@H](C4)N5)nc(OC[C@@]45CCCN4C[C@H](F)C5)nc3c2F)n1 [Example 39, 1-(4-((1R,5S)-3,8-diazabicyclo[3.2.1]octan-3-yl)-8-fluoro-2-(((2R,7aS)-2-fluorotetrahydro-1H-pyrrolizin-7a(5H)-yl)methoxy)pyrido[4,3-d]pyrimidin-7-yl)-8-chloro-7-fluoroisoquinolin-3-amine] | > 2500 |
| C#Cc1c(F)ccc2cc(N)nc(-c3ncc4c(N5C[C@H]6CC[C@@H](C5)N6)nc(OC[C@@]56CCCN5C[C@H](F)C6)nc4c3F)c12 [Example 40, 1-(4-((1R,5S)-3,8-diazabicyclo[3.2.1]octan-3-yl)-8-fluoro-2-(((2R,7aS)-2-fluorotetrahydro-1H-pyrrolizin-7a(5H)-yl)methoxy)pyrido[4,3-d]pyrimidin-7-yl)-8-ethynyl-7-fluoroisoquinolin-3-amine] | > 2500 |
| Cc1cc(N)nc(-c2ncc3c(N4C[C@H]5CC[C@@H](C4)N5)nc(OC[C@@]45CCCN4C[C@H](F)C5)nc3c2F)c1C(F)(F)F [Example 41, 6-(4-((1R,5S)-3,8-diazabicyclo[3.2.1]octan-3-yl)-8-fluoro-2-(((2R,7aS)-2-fluorotetrahydro-1H-pyrrolizin-7a(5H)-yl)methoxy)pyrido[4,3-d]pyrimidin-7-yl)-4-methyl-5-(trifluoromethyl) pyridin-2-amine] | > 2500 |
| Nc1cc(-c2ncc3c(N4C[C@H]5CC[C@@H](C4)N5)nc(OC[C@@]45CCCN4C[C@H](F)C5)nc3c2F)c2ccccc2c1 [Example 42, 4-(4-((1R,5S)-3,8-diazabicyclo[3.2.1]octan-3-yl)-8-fluoro-2-(((2R,7aS)-2-fluorotetrahydro-1H-pyrrolizin-7a(5H)-yl)methoxy)pyrido[4,3-d]pyrimidin-7-yl) naphthalen-2-amine] | 109 |
